Entries after “also recorded” stand apart in the source; their conditions may differ.
Assays:
Type in all cases: cell-based, human
PGC1α in 22Rv1 cells = test: PGC1α expression and sub-cellular localization; conditions: 4Gy
Method: FIGS. 24A-24D depict that PGC1α and mitochondrial biogenesis are regulated by BMP/CD105. 22Rv1 cells were incubated with IgG or TRC105 with or without 4 Gy irradiation. All measurements were made 72 hours post radiation. FIG. 24A) Western blot for whole cell lysate, nuclear and cytoplasmic fractions were independently analyzed for PGC1α expression. Loading controls included β-actin (whole cell), lamin B (nuclear marker), and Rho A (cytoplasm marker). FIG. 24B) Immunofluorescent localization of PGC1α was visualized with DAPI nuclear counterstain. FIG. 24C) mRNA expression of PGC1α target genes, NRF1, MTFA, and CPT1C was measured. mRNA expression was normalized to GAPDH and untreated IgG 0 Gy. FIG. 24D) Mitochondrial DNA (mtDNA) was measured from total DNA extracts and normalized to nuclear DNA and compared to untreated IgG 0 Gy. Data are reported as means+/−S.D. of 3 independent experiments. (***p<0.001, ****p<0.0001).

[1] = tested on: SIRT1 transcription in CW22Rv1; test: BMP dependent SIRT1 mRNA expression; conditions: 50 ng/ml BMP4, serum free; TRC105 0.05-10 μg/ml
Method: FIG. 20A) Western blot for SIRT1 expression measured in 22Rv1 cells following serum starvation and treatment with 50 ng/ml BMP4 for 4 hours. Phosphorylated Smad1/5 and β-actin was measured concurrently. FIG. 20B) SIRT1 mRNA expression was measured in CW22Rv1 under serum free conditions with 50 ng/ml BMP4, IgG in the context of increasing doses of TRC105 (0.05, 0.1, 0.5, 1, 5, or 10 μg/ml). SIRT1 mRNA expression was normalized to GAPDH and to serum treated control. FIG. 20C) Fold Change of SIRT1 mRNA in benign prostate and prostate cancer patients, obtained from R2-Genomics analysis is expressed (n=95). FIG. 20D) Immunohistochemical localization for SIRT1 expression in benign and prostate cancer tissues is indicated by arrows (Human Protein Atlas). […] FIG. 20E) SIRT1 mRNA expression was measured 72 hours following irradiation of 22Rv1 in a dose range of 0-6 Gy. FIG. 20F) SIRT1 mRNA expression was measured in a time course 0-72 hours following 4 Gy irradiation. […]
Total RNA was extracted using the RNeasy kit (Qiagen). […] Quantitative RT-PCR was performed with 5 replicates using the Step One Real-Time PCR system (Applied Biosystems). […] For RNA-sequencing, Ion Proton AmpliSeq Transcriptome RNA Sequencing was performed achieving an average of 3M reads. We mapped an average of 88% of the reads to the human genome with Torrent Suite version 4.4.2.

[2] = tested on: MTCO1 of complex-IV and NDUFB8 of complex-I in 22Rv1; test: Western blot of mitochondrial electron transport chain proteins; conditions: 4Gy+TRC105 vs radiation alone, 72 hours
Method: Lysate was collected 72 hours post irradiation for Western blot. FIG. 25A) Blots were probed for a cocktail of mitochondrial complex proteins. Protein levels of MTCO1 of complex-IV and NDUFB8 of complex-I were normalized to ponceau. […] Within each group, the first/left column depicts 0Gy+IgG, the second column depicts 0Gy+TRC105, the third column depicts 4Gy+IgG and the last/right column depicts 4Gy+TRC105. (**p<0.01, ***p<0.001)

CW22Rv1 cells = test: Cell cycle analysis after irradiation
Method: Within each group, the left column depicts G1, middle column depicts S and the right column depicts G2. […] All studies shown are 5 days after irradiation and/or 5 days of treatment with TRC105.
22Rv1 were pre-treated with 1 μg/ml TRC105 24 hours prior to irradiation with 4 Gy. FIG. 22A) γ-H2AX or p53 bp were imunolocalized at 4, 24, and 48 hours post radiation. Foci per nuclei were quantified (n=100). FIG. 22B) Comet assay was performed 30 minutes and 24 hours following irradiation. The tail moment was quantified (n=50). FIG. 22C) Cell cycle analysis was performed on 22Rv1 at 0, 4, 8, and 24 hours post radiation in the presence of IgG or TRC105 (n=3) in 3 independent experiments. (***p<0.001, ****p<0.0001).

[3] = tested on: SIRT1 expression in C4-2B; test: Radiation induced SIRT1 mRNA expression; conditions: irradiated
Method: (§1) FIG. 21A) C4-2B were irradiated (0, 2, 4, or 6 Gy) and SIRT1 expression measured 72 hours post irradiation. FIG. 21B) C4-2B cells were irradiated (4 Gy) and SIRT1 expression measured 0, 0.5, 4, 8, 24, 48, and 72 hours post-radiation. FIG. 21C) 22Rv1 were pre-treated with 1 μg/ml IgG or TRC105 24 hours prior to irradiation with 4 Gy and compared for relative SIRT1 mRNA expression 72 hours after to irradiation. SIRT1 mRNA was normalized to GAPDH and to 0 Gy control.
(§2) Total RNA was extracted using the RNeasy kit (Qiagen). 1 μg RNA was used for cDNA synthesis using iSCRIPT cDNA synthesis kit (1708891, Bio-Rad). Quantitative RT-PCR was performed with 5 replicates using the Step One Real-Time PCR system (Applied Biosystems). Gene mRNA expression was normalized to GAPDH. Primer sequences can be found in the Table 1. For RNA-sequencing, Ion Proton AmpliSeq Transcriptome RNA Sequencing was performed achieving an average of 3M reads. We mapped an average of 88% of the reads to the human genome with Torrent Suite version 4.4.2.

[4] = tested on: SIRT1 expression in 22Rv1; test: Radiation induced SIRT1 mRNA expression; conditions: 4 Gy
Method: as §1, §2

With “TRC105: partially humanized monoclonal antibody that blocks BMP signaling; human-specific CD105 (endoglin) neutralizing antibody from Tracon Pharmaceuticals” the “radiation-induced nuclear translocation of PGC1α” value (PGC1α in 22Rv1 cells; 72 hours) was “prevented radiation-induced nuclear translocation of PGC1α”, the “PGC1α expression, whole cell lysate” value (PGC1α in 22Rv1 cells; IgG or TRC105, 72 hours) was “no effect on PGC1α expression” and the “BMP dependent induction of SIRT1 transcription” value [1] was “down-regulated when CD105 was antagonized with TRC105 in a dose dependent manner”. For the same substance, the “mitochondrial electron transport chain proteins MTCO1 and NDUFB8” value [2] was “down-regulation of CIV-MTCO1 and CI-NDUF88; also recorded: significantly lower”, the cell cycle distribution (CW22Rv1 cells; 4 Gy plus TRC105, 0-24 hours) was “G2 cell cycle arrest that did not resolve by 24 hours” and the “cell cycle, G2-phase” value (CW22Rv1 cells; radiation combined with TRC105, 5 days) was “chronic up regulation of the G2-phase”. The “radiation induced SIRT1 expression” value [3] was “abrogated radiation induced SIRT1 expression” and the “radiation induced SIRT1 expression” value [4] was “abrogated radiation induced SIRT1 expression”.

Source: patent US20200239587A1, “SENSITIZATION OF TUMORS TO THERAPIES THROUGH ENDOGLIN ANTAGONISM” (Cedars-Sinai Medical Center, priority 2016, published 2020)
